{"source": "DBAASP", "assay_in_all_cases": "≥ marks a high value that may be exact or a test limit, other limits are often not marked, values filed in µg/mL are converted to µM", "key": {"[1]": {"tested_on": "Staphylococcus aureus ATCC 43300"}, "[2]": {"tested_on": "Staphylococcus epidermidis"}, "Escherichia coli B": {"tested_on": "Escherichia coli B"}, "Pseudomonas aeruginosa": {"tested_on": "Pseudomonas aeruginosa"}, "Bacillus subtilis 168": {"tested_on": "Bacillus subtilis 168"}, "[3]": {"tested_on": "Candida albicans F7-39/IDE99"}, "[4]": {"tested_on": "Micrococcus luteus CCM 144"}, "Staphylococcus aureus": {"tested_on": "Staphylococcus aureus"}, "[5]": {"tested_on": "Pseudomonas aeruginosa ATCC 27853"}, "Staphylococcus aureus 1": {"tested_on": "Staphylococcus aureus 1"}, "[6]": {"tested_on": "Fusarium graminearum PH-1"}, "[7]": {"tested_on": "Pseudomonas aeruginosa 213"}, "[8]": {"tested_on": "Pseudomonas aeruginosa LES400"}, "[9]": {"tested_on": "Staphylococcus aureus C623"}, "[10]": {"tested_on": "Pseudomonas aeruginosa H103"}, "[11]": {"tested_on": "Staphylococcus aureus ATCC 25923"}, "[12]": {"tested_on": "Escherichia coli ESBL 63103"}, "Candida albicans C627": {"tested_on": "Candida albicans C627"}, "[13]": {"tested_on": "Enterococcus faecium mic80"}, "[14]": {"tested_on": "Staphylococcus epidermidis ATCC 12228"}, "[15]": {"tested_on": "Klebsiella pneumoniae ATCC 700603"}, "[16]": {"tested_on": "Escherichia coli ATCC 25322"}, "[17]": {"tested_on": "Escherichia coli BW25113 ΔsbmA"}, "[18]": {"tested_on": "Acinetobacter baumannii ATCC 19606"}, "[19]": {"tested_on": "Salmonella enterica subsp. enterica serovar Typhimurium ATCC 14028"}, "[20]": {"tested_on": "Escherichia coli ATCC 25922"}, "Escherichia coli BW25113": {"tested_on": "Escherichia coli BW25113"}, "Escherichia coli": {"tested_on": "Escherichia coli"}, "Micrococcus luteus": {"tested_on": "Micrococcus luteus"}, "[21]": {"tested_on": "Corynebacterium glutamicum ATCC 13032"}, "Bacillus subtilis": {"tested_on": "Bacillus subtilis"}, "[22]": {"tested_on": "Stenotrophomonas maltophilia"}, "[23]": {"tested_on": "Escherichia coli DH5alpha"}, "Acinetobacter baumannii": {"tested_on": "Acinetobacter baumannii"}, "Salmonella typhimurium": {"tested_on": "Salmonella typhimurium"}, "Streptococcus pyogenes": {"tested_on": "Streptococcus pyogenes"}, "Proteus vulgaris": {"tested_on": "Proteus vulgaris"}}}
{"compound": "CC[C@H](C)[C@H](NC(=O)CN)C(=O)N[C@@H](CC(C)C)C(=O)N[C@@H](CO)C(=O)N[C@@H](CO)C(=O)N[C@@H](CC(C)C)C(=O)N[C@@H](Cc1c[nH]c2ccccc12)C(=O)N[C@@H](CCCCN)C(=O)N[C@@H](CCCCN)C(=O)N[C@@H](CC(C)C)C(=O)N[C@@H](CCCCN)C(=O)N[C@@H](CCCCN)C(=O)N[C@@H](Cc1c[nH]c2ccccc12)C(=O)N[C@H](C(=O)N[C@@H](C)C(=O)N[C@@H](CCCCN)C(N)=O)[C@@H](C)CC", "note": "[GILSSLWKKLKKWIAK]", "values": [{"measurement": "MIC", "setting": "[1]", "value": 2.5, "unit": "µM"}, {"measurement": "MIC", "setting": "[2]", "value": 1.6, "unit": "µM"}, {"measurement": "MIC", "setting": "Escherichia coli B", "value": 2.5, "unit": "µM"}, {"measurement": "MIC", "setting": "Pseudomonas aeruginosa", "value": 24, "unit": "µM"}, {"measurement": "MIC", "setting": "Bacillus subtilis 168", "value": 7, "unit": "µM"}, {"measurement": "MIC", "setting": "[3]", "value": 13, "unit": "µM"}, {"measurement": "MIC", "setting": "[4]", "value": 3, "unit": "µM"}, {"measurement": "MIC", "setting": "Staphylococcus aureus", "value": 2, "unit": "µM"}, {"measurement": "MIC", "setting": "[5]", "value": 13, "unit": "µM"}, {"measurement": "MIC", "setting": "Staphylococcus aureus 1", "value": 1.8, "unit": "µM"}]}
{"compound": "CC[C@H](C)[C@H](NC(=O)[C@H](CCCCN)NC(=O)[C@H](CCCCN)NC(=O)[C@H](CC(C)C)NC(=O)[C@H](CCCCN)NC(=O)[C@H](CCCCN)NC(=O)[C@H](Cc1c[nH]c2ccccc12)NC(=O)[C@H](CC(C)C)NC(=O)[C@H](CO)NC(=O)[C@H](CO)NC(=O)[C@H](CC(C)C)NC(=O)[C@H](CCCCN)NC(=O)CN)C(=O)N[C@H](C(=O)N[C@@H](C)C(=O)N[C@@H](CCCCN)C(N)=O)[C@@H](C)CC", "note": "[GKLSSLWKKLKKIIAK]", "values": [{"measurement": "MIC", "setting": "[1]", "value": 26, "unit": "µM"}, {"measurement": "MIC", "setting": "[2]", "value": 2.5, "unit": "µM"}, {"measurement": "MIC", "setting": "Escherichia coli B", "value": 20, "unit": "µM"}, {"measurement": "MIC", "setting": "Pseudomonas aeruginosa", "value": 19, "unit": "µM"}, {"measurement": "MIC", "setting": "Bacillus subtilis 168", "value": 7, "unit": "µM"}, {"measurement": "MIC", "setting": "[3]", "value": "≥ 34", "unit": "µM"}, {"measurement": "MIC", "setting": "[4]", "value": 3, "unit": "µM"}, {"measurement": "MIC", "setting": "Staphylococcus aureus", "value": 27, "unit": "µM"}, {"measurement": "MIC", "setting": "[5]", "value": 6.8, "unit": "µM"}, {"measurement": "MIC", "setting": "Staphylococcus aureus 1", "value": 11, "unit": "µM"}]}
{"compound": "NCC(=O)N1CCC[C@H]1C(=O)N[C@H]1CSSC[C@@H](C(=O)O)NC(=O)CNC(=O)[C@H](CO)NC(=O)[C@H](Cc2ccccc2)NC1=O", "note": "[GPCFSGC]", "values": [{"measurement": "MIC", "setting": "[6]", "value": "≥ 48", "unit": "µM"}]}
{"compound": "CC[C@H](C)[C@H](N)C(=O)N[C@@H](CCCCN)C(=O)N[C@@H](Cc1c[nH]c2ccccc12)C(=O)N[C@@H](CCCCN)C(=O)N[C@@H](CCCN=C(N)N)C(=O)N[C@@H](Cc1c[nH]c2ccccc12)C(=O)N[C@@H](Cc1c[nH]c2ccccc12)C(=O)N[C@@H](Cc1c[nH]c2ccccc12)C(=O)N[C@@H](CCCN=C(N)N)C(=O)O", "note": "[IKWKRWWWR]", "values": [{"measurement": "MIC", "setting": "[7]", "value": "≥ 88.6", "unit": "µM"}, {"measurement": "MIC", "setting": "[8]", "value": "≥ 88.6", "unit": "µM"}, {"measurement": "MIC", "setting": "[9]", "value": 22.1, "unit": "µM"}, {"measurement": "MIC", "setting": "[10]", "value": "≥ 88.6", "unit": "µM"}, {"measurement": "MIC", "setting": "[11]", "value": 22.1, "unit": "µM"}, {"measurement": "MIC", "setting": "[12]", "value": 22.1, "unit": "µM"}, {"measurement": "MIC", "setting": "Candida albicans C627", "value": 5.54, "unit": "µM"}, {"measurement": "MIC", "setting": "[13]", "value": 22.1, "unit": "µM"}]}
{"compound": "CC(C)C[C@H](NC(=O)[C@H](C)NC(=O)[C@H](CO)NC(=O)[C@H](CCCCN)NC(=O)[C@H](CC(C)C)NC(=O)[C@H](CC(C)C)NC(=O)[C@@H](N)CC(N)=O)C(=O)N[C@@H](CCCCN)C(=O)N[C@H](C(=O)N[C@H](C(=O)N[C@@H](CC(N)=O)C(=O)N[C@@H](CCCCN)C(=O)N[C@@H](CC(C)C)C(=O)N[C@@H](CC(C)C)C(=O)N[C@@H](C)C(=O)N[C@@H](C)C(=O)N[C@@H](CO)C(N)=O)C(C)C)[C@@H](C)O", "note": "[NLLKSALKTVNKLLAAS]", "values": [{"measurement": "MIC", "setting": "[14]", "value": 64, "unit": "µM"}, {"measurement": "MIC", "setting": "[15]", "value": 64, "unit": "µM"}, {"measurement": "MIC", "setting": "[11]", "value": 128, "unit": "µM"}, {"measurement": "MIC", "setting": "[16]", "value": "≥ 32", "unit": "µM"}, {"measurement": "MIC", "setting": "[5]", "value": 64, "unit": "µM"}]}
{"compound": "CC(C)C[C@H](NC(=O)CNC(=O)[C@H](CC(N)=O)NC(=O)[C@@H](NC(=O)[C@@H](NC(=O)CNC(=O)[C@H](CC(C)C)NC(=O)[C@H](C)NC(=O)[C@H](CC(=O)O)NC(=O)[C@H](CC(N)=O)NC(=O)[C@H](CC(C)C)NC(=O)[C@H](CC(C)C)NC(=O)[C@@H](N)CC(N)=O)[C@@H](C)O)C(C)C)C(=O)N[C@@H](CC(C)C)C(=O)NCC(=O)N[C@@H](CCCN=C(N)N)C(=O)N[C@@H](CO)C(=O)O", "note": "[NLLNDALGTVNGLLGRS]", "values": [{"measurement": "MIC", "setting": "[11]", "value": 32, "unit": "µM"}, {"measurement": "MIC", "setting": "[16]", "value": "≥ 64", "unit": "µM"}]}
{"compound": "CC[C@H](C)[C@H](NC(=O)[C@@H]1CCCN1C(=O)[C@@H]1CCCN1C(=O)[C@H](CCCN=C(N)N)NC(=O)[C@H](Cc1ccccc1)NC(=O)[C@@H](N)CCCN=C(N)N)C(=O)N[C@@H](CCCN=C(N)N)C(=O)N[C@@H](CCCN=C(N)N)C(=O)N1CCC[C@H]1C(=O)N1CCC[C@H]1C(=O)N[C@H](C(=O)N[C@@H](CCCN=C(N)N)C(=O)N1CCC[C@H]1C(=O)N1CCC[C@H]1C(=O)N[C@@H](Cc1ccccc1)C(=O)N[C@@H](Cc1ccc(O)cc1)C(=O)N1CCC[C@H]1C(=O)N1CCC[C@H]1C(=O)N[C@@H](Cc1ccccc1)C(=O)N[C@@H](CCCN=C(N)N)C(=O)N1CCC[C@H]1C(=O)O)[C@@H](C)CC", "note": "[RFRPPIRRPPIRPPFYPPFRP]", "values": [{"measurement": "MIC", "setting": "[15]", "value": 32, "unit": "µM"}, {"measurement": "MIC", "setting": "[17]", "value": 16, "unit": "µM"}, {"measurement": "MIC", "setting": "[11]", "value": "> 64", "unit": "µM"}, {"measurement": "MIC", "setting": "[18]", "value": 16, "unit": "µM"}, {"measurement": "MIC", "setting": "[19]", "value": 8, "unit": "µM"}, {"measurement": "MIC", "setting": "[20]", "value": 4, "unit": "µM"}, {"measurement": "MIC", "setting": "Escherichia coli BW25113", "value": 2, "unit": "µM"}, {"measurement": "MIC", "setting": "[5]", "value": "> 64", "unit": "µM"}]}
{"compound": "C[C@H](NC(=O)[C@H](Cc1ccccc1)NC(=O)CNC(=O)[C@@H](N)CCCN=C(N)N)C(=O)N[C@@H](CCCN=C(N)N)C(=O)N[C@@H](CCCN=C(N)N)C(=O)O", "note": "[RGFARR]", "values": [{"measurement": "MIC", "setting": "[6]", "value": "≥ 96", "unit": "µM"}]}
{"compound": "CC(=O)N[C@@H](CCCN=C(N)N)C(=O)N[C@@H](Cc1c[nH]c2ccccc12)C(=O)N[C@H](C(=O)N[C@@H](Cc1c[nH]c2ccccc12)C(=O)N[C@@H](CCCN=C(N)N)C(=O)NCC(=O)N[C@@H](CO)C(=O)NCC(=O)N[C@@H](CCCN=C(N)N)C(=O)N[C@@H](Cc1c[nH]c2ccccc12)C(=O)N[C@H](C(=O)N[C@@H](Cc1c[nH]c2ccccc12)C(=O)N[C@@H](CCCN=C(N)N)C(N)=O)[C@@H](C)O)[C@@H](C)O", "note": "[RWTWRGSGRWTWR]", "values": [{"measurement": "MIC", "setting": "Escherichia coli", "value": 8.93, "unit": "µM"}, {"measurement": "MIC", "setting": "Pseudomonas aeruginosa", "value": 69.8, "unit": "µM"}, {"measurement": "MIC", "setting": "Micrococcus luteus", "value": 8.93, "unit": "µM"}, {"measurement": "MIC", "setting": "[21]", "value": 0.794, "unit": "µM"}, {"measurement": "MIC", "setting": "Bacillus subtilis", "value": 8.93, "unit": "µM"}, {"measurement": "MIC", "setting": "[22]", "value": "≥ 279", "unit": "µM"}, {"measurement": "MIC", "setting": "[23]", "value": 25, "unit": "µM"}, {"measurement": "MIC", "setting": "Acinetobacter baumannii", "value": 17.9, "unit": "µM"}, {"measurement": "MIC", "setting": "Staphylococcus aureus", "value": 4.47, "unit": "µM"}]}
{"compound": "CC[C@H](C)[C@H](NC(=O)[C@@H](N)Cc1ccc(O)cc1)C(=O)N1CCC[C@H]1C(=O)N[C@@H](CCC(N)=O)C(=O)N1CCC[C@H]1C(=O)N[C@@H](CCCN=C(N)N)C(=O)N1CCC[C@H]1C(=O)N1CCC[C@H]1C(=O)N[C@@H](Cc1cnc[nH]1)C(=O)N1CCC[C@H]1C(=O)N[C@@H](CCCN=C(N)N)C(=O)N[C@@H](CC(C)C)C(=O)O", "note": "[YIPQPRPPHPRL]", "values": [{"measurement": "MIC", "setting": "Escherichia coli", "value": 64, "unit": "µM"}, {"measurement": "MIC", "setting": "[2]", "value": "≥ 64", "unit": "µM"}, {"measurement": "MIC", "setting": "Pseudomonas aeruginosa", "value": 64, "unit": "µM"}, {"measurement": "MIC", "setting": "Salmonella typhimurium", "value": 0.5, "unit": "µM"}, {"measurement": "MIC", "setting": "Bacillus subtilis", "value": "≥ 64", "unit": "µM"}, {"measurement": "MIC", "setting": "Streptococcus pyogenes", "value": "≥ 64", "unit": "µM"}, {"measurement": "MIC", "setting": "Proteus vulgaris", "value": "≥ 64", "unit": "µM"}]}
